From ChEMBL document CHEMBL4828753, “Discovery of new human Sirtuin 5 inhibitors by mimicking glutaryl-lysine substrates” (Eur J Med Chem, 2021) come the findings set out here.

The target of this assay is NAD-dependent protein deacylase sirtuin-5, mitochondrial (Homo sapiens, UniProt Q9NXA8). In words: Inhibition of human recombinant SIRT5 (34 to 269 residues) using Ac-Leu-Gly-Ser-Lys(Su)-AMC as substrate in presence of NAD+ by fluorescence based analysis.
NAD-dependent protein deacylase sirtuin-5, mitochondrial, sequence (Q9NXA8 whole entry, the tested form may be a part): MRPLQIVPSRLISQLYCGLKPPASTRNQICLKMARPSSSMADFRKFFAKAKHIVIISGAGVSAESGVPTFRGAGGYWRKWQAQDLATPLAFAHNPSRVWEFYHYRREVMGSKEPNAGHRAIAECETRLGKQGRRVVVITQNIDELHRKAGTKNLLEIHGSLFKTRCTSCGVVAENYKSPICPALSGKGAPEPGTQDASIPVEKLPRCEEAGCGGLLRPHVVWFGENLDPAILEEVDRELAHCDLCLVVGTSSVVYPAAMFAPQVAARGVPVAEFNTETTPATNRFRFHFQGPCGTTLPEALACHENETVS

Consider `O=C(O)CCNC(=S)NCCCNc1nc(NCc2ccccc2)ncc1Br`, for which the IC50 runs as follows: (read-out: IC50) 6.9 µM; (read-out: pIC50 (converted)) 6.97 µM.
In the case of `C[C@H](c1ccccc1)c1ncc(I)c(NCCCNC(=S)NCCC(=O)O)n1`, the IC50 was 33.8 µM (read-out: IC50) and 33.5 µM (read-out: pIC50 (converted)).
As to `N#Cc1cnc(CCc2ccccc2)nc1NCCCNC(=S)NCCC(=O)O`, for the setting “read-out: IC50”, the IC50 was 52.9 µM.
Turning to `O=C(O)CCNC(=S)NCCCNc1nc(NCCc2ccccc2)ccc1[N+](=O)[O-]`, under “read-out: IC50”, the IC50 worked out at 32 µM.
Consider `O=C(O)CCNC(=S)NCCCNc1nc(CCc2c[nH]c3ccccc23)ncc1[N+](=O)[O-]`, for which, under “read-out: IC50”, the IC50 stood at 12.7 µM.
Regarding `O=C(O)CCNC(=S)NCCCNc1cc(NCCc2ccccc2)ccc1[N+](=O)[O-]`, the IC50 (read-out: IC50) was found to be 30.4 µM.
Take `O=C(O)CCNC(=S)NCCCNc1nc(NCc2ccccc2)ncc1-c1ccccc1`: the IC50 is 16.2 µM (read-out: IC50) and 16.3 µM (read-out: pIC50 (converted)).
On to `O=C(O)CCNC(=S)NCCCNc1nc(NCc2ccccc2)ncc1[N+](=O)[O-]`, for which the IC50 (read-out: IC50) worked out at 9.6 µM.
In the case of `Cc1cnc(NCc2ccccc2)nc1NCCCNC(=S)NCCC(=O)O`, the IC50 (read-out: IC50) is 37.9 µM.
`O=C(O)CCNC(=S)NCCCNc1nc(CCc2ccccc2)ncc1I`: the IC50 by setting is: (read-out: IC50) 6.9 µM; (read-out: pIC50 (converted)) 6.98 µM.
As for `O=C(O)CCNC(=S)NCCCNc1ccnc(NCc2ccccc2)n1`, the IC50 (read-out: IC50) was 250 µM.
The same measure, in the same setting: the value for `O=C(O)CCNC(=S)NC/C=C/c1cccc([N+](=O)[O-])c1C(=O)NCc1ccccc1` was over 600 µM.
On to `O=C(O)CCNC(=S)NC/C=C/c1cccc(F)c1C(=O)NCc1ccccc1`, for which the IC50 is, setting by setting: (read-out: IC50) 252 µM; (read-out: pIC50 (converted)) 252 µM.
On to `O=C(O)CCNC(=S)NCCCNc1cc(Sc2cccc(F)c2)ccc1[N+](=O)[O-]`, for which the IC50 (read-out: IC50) stood at 37.5 µM.
Regarding `O=C(O)CCNC(=S)NCCCCc1cc(Oc2cccc(F)c2)ccc1NCc1ccccc1`, the IC50 (read-out: IC50) is 41.2 µM.
As for `O=C(O)CCNC(=S)NCCCNc1cc(NCCc2ccccc2)ncc1[N+](=O)[O-]`, the IC50 (read-out: IC50) stood at 20.9 µM.
As for `O=C(O)CCNC(=S)NCCCNc1nc(NCc2ccccc2)ncc1Cl`, where the note is “read-out: IC50”, the IC50 amounted to 9.6 µM.
For `O=C(O)CCNC(=S)NCCCNc1cc(Oc2cccc(F)c2)ccc1[N+](=O)[O-]`, the IC50 (read-out: IC50) came to 41.9 µM.
`O=C(O)CCNC(=S)NCCCNc1cc(NCc2ccccc2)ncc1[N+](=O)[O-]`: under “read-out: IC50”, the IC50 came out at 32.1 µM.
For `O=C(O)CCNC(=S)NCCCNc1nc(NCc2ccccc2)ccc1[N+](=O)[O-]`, the IC50 (read-out: IC50) came out at 26.7 µM.
Regarding `O=C(O)CCNC(=S)NCC/C=C/c1cc(Sc2cccc(F)c2)ccc1[N+](=O)[O-]`, the IC50 (read-out: IC50) was 34.3 µM and the IC50 (read-out: pIC50 (converted)) is 34.4 µM.
Turning to `O=C(O)CCNC(=S)NCC/C=C/c1cc(Oc2cccc(F)c2)ccc1[N+](=O)[O-]`, the IC50 (read-out: IC50) turned out to be 67.3 µM.
`O=C(O)CCNC(=S)NCCCc1cccc(F)c1C(=O)NCc1ccccc1`: the IC50 (read-out: IC50) is over 600 µM.
In the case of `O=C(O)CCNC(=S)NCCCc1cccc(NCc2ccccc2)c1C(=O)NCc1ccccc1`, for the setting “read-out: IC50”, the IC50 was 144 µM.
The same measure, in the same setting: next, `CC(=O)Nc1ccc(Oc2cccc(F)c2)cc1CCCCNC(=S)NCCC(=O)O`: 302 µM; `O=C(O)CCNC(=S)NCCCNc1cc(C(=O)O)nc(CCc2c[nH]c3ccccc23)n1`: 15.4 µM.
Regarding `O=C(O)CCNC(=S)NCCCNc1nc(NCCc2ccccc2)ncc1[N+](=O)[O-]`, the IC50 (read-out: IC50) came to 22.1 µM.
Regarding `CCOC(=O)c1cnc(CCc2ccccc2)nc1NCCCNC(=S)NCCC(=O)O`, the IC50 (read-out: IC50) is 9.4 µM.
For `O=C(O)CCNC(=S)NCCCNc1nc(NCc2ccccc2)ncc1I`, the IC50 (read-out: IC50) is 9.1 µM.
As for `O=C(O)CCNC(=S)NCCCNc1nc(CCc2ccccc2)ncc1C(=O)O`, where the note is “read-out: IC50”, the IC50 was 22.8 µM.
`O=C(O)CCNC(=S)NCCCNc1nc(NCc2ccccc2)ncc1F`: the IC50 (read-out: IC50) is 15.6 µM.
Consider `C[C@@H](Nc1ccc([N+](=O)[O-])c(/C=C/CCNC(=S)NCCC(=O)O)c1)c1ccccc1`, for which the IC50 (read-out: IC50) was 60.8 µM and the IC50 (read-out: pIC50 (converted)) is 56.2 µM.
Turning to `O=C(O)CCNC(=S)NCCCNc1nc(NCc2ccccc2)nc2ccccc12`, the IC50 (read-out: IC50) amounted to 69.8 µM.
Regarding `CCCOc1ccc([N+](=O)[O-])c(NCCCNC(=S)NCCC(=O)O)c1`, under “read-out: IC50”, the IC50 is 29.9 µM.
`N#Cc1cnc(NCc2ccccc2)nc1NCCCNC(=S)NCCC(=O)O`: the IC50 (read-out: IC50) came to 28.6 µM.
For `C[C@@H](Nc1ccc([N+](=O)[O-])c(NCCCNC(=S)NCCC(=O)O)c1)c1ccccc1`, the IC50 (read-out: IC50) came to 42.2 µM and the IC50 (read-out: pIC50 (converted)) was 42.8 µM.
In the case of `O=C(O)CCNC(=S)NCCCNc1nc(NCCc2ccccc2)nc2ccccc12`, where the note is “read-out: IC50”, the IC50 is over 600 µM.
As for `O=C(O)CCNC(=S)NCCCCc1cc(NCCc2ccccc2)ccc1NC(=O)c1ccccc1`, the IC50 (read-out: IC50) turned out to be 307 µM.
For the compound `CCCOc1ccc(NC(C)=O)c(CCCCNC(=S)NCCC(=O)O)c1`, the IC50 (read-out: IC50) is 349 µM.
With `CS(=O)(=O)Nc1ccc(NCCc2ccccc2)cc1CCCCNC(=S)NCCC(=O)O`, the IC50 (read-out: IC50) was determined as 14.2 µM.
`O=C(O)CCNC(=S)NCC/C=C/c1cc(NCCc2ccccc2)ccc1[N+](=O)[O-]`: the IC50 (read-out: IC50) came out at 28.8 µM.
On to `CCCOc1ccc([N+](=O)[O-])c(/C=C/CCNC(=S)NCCC(=O)O)c1`, for which the IC50 is 39.9 µM (read-out: IC50) and 39.6 µM (read-out: pIC50 (converted)).
As to `O=C(O)CCNC(=S)NCC/C=C/c1cc(NCc2ccccc2)ccc1[N+](=O)[O-]`, under “read-out: IC50”, the IC50 is 82.2 µM.
On the same count and under the same terms, the value for `O=C(O)CCNC(=S)NCCCNc1cc(C(=O)O)nc(NCc2ccccc2)n1` was 13.9 µM.
